Test results as given in US6958345B2, “2-hydroxymethylcyclopropylidene methylpurines and -pyrimidines as antiviral agents” (The Regents of the University of Michigan, priority 1997, dated 2005).
Read-outs that look alike come from different tables or passages of the source.

Legend:
HCMV = HCMV plaque reduction assay in HFF cells; format: cell-based, Human CMV (HCMV); conditions: for IC50: HFF cells, plaque reduction; for activity against HCMV (in words): racemic analogues
Procedure: (§1) Cells and viruses. The routine growth and passage of KB cells was performed in monolayer cultures using minimal essential medium (MEM) with either Hanks salts [MEM(H)] or Earle salts [MEM(E)] supplemented with 10% calf serum. The sodium bicarbonate concentration was varied to meet the buffering capacity required. Cultures of diploid human foreskin fibroblasts (HFF) or MRC-5 cells were grown in medium consisting of MEM(E) with 10% fetal bovine serum. Cells were passaged at 1:2 to 1:10 dilutions according to conventional procedures by using 0.05% trypsin plus 0.02% EDTA in a HEPES buffered salt solution (HBS) (Shipman, C., Jr., Proc. Soc. Exp. Biol. 130:305-310 (1969)) as described previously. Turk, S. R., et al., Antimicrob. Agents Chemother. 31:544-550 (1987). HFF and MRC-5 cells were passaged only at 1:2 dilutions. CEM cells were maintained in suspension culture as detailed previously. Kucera, L. S., et al., AIDS Res. Human Retroviruses 9:307-314 (1993).
(§2) Virological procedures. Stock HCMV was prepared by infecting HFF cells at a multiplicity of infection (m.o.i.) of <0.01 plaque-forming units (p.f.u.) per cell. Cell growth medium was changed every four days until cytopathology was evident in all cells (approximately 21 days). Supernatant fluids were retained as the virus stock. High titer HSV-1 stocks were prepared by infecting KB cells at an m.o.i. of <0.1 as detailed previously. Turk, S. R., et al., Antimicrob. Agents Chemother. 31:544-550 (1987). Virus titers were determined using monolayer cultures of HFF cells for HCMV and monolayer cultures of BSC-1 cells for HSV-1 as described earlier. Prichard, M. N., et al., J. Virol. Methods 28:101-106 (1990). Briefly, HFF or BSC-1 cells were planted as described above in 96-well cluster dishes and incubated overnight at 37° C. in a humidified 3% CO297% air atmosphere. The next day cultures were inoculated with HCMV or HSV-1 and serially diluted 1:3 across the remaining eleven columns of the 96-well plate. Cultures were incubated at 37° C. for 2 hr to permit virus adsorption and then virus inoculum was replaced with 0.2 mL of fresh medium. Cultures were incubated for seven days for HCMV, two or three days for HSV-1, medium was removed, and the cell sheets were stained with 0.1% crystal violet in 20% methanol. Plaques were enumerated under 20-fold magnification in wells having the dilution which gave 5 to 20 plaques per well. Virus titers were calculated according to the following Formula: Titer (p.f.u./mL)=number of plaques×5×3^n; where n represents the nth dilution of the virus used to infect the well in which plaques were enumerated.
(a) HCMV. The effect of compounds on the replication of HCMV has been measured using a plaque reduction assay. HFF cells in 24-well cluster dishes were infected with approximately 100 p.f.u. of HCMV per cm^2 cell sheet using the procedures detailed above. Following virus adsorption, compounds dissolved in growth medium were added to duplicate wells in three to six selected concentrations. Following incubation at 37° C. for 7 to 10 days, cell sheets were fixed, stained with crystal violet and microscopic plaques enumerated as described above. Drug effects were calculated as a percentage of reduction in number of plaques in the presence of each drug concentration compared to the number observed in the absence of drug. Ganciclovir (DHPG) was used as a positive control in all experiments.
(§3) Data Analysis. Dose-response relationships were constructed by linearly regressing the percent inhibition of parameters derived in the preceding sections against log drug concentrations. Fifty-percent inhibitory (IC50) concentrations were calculated from the regression lines. Samples containing positive controls (acyclovir for HSV-1, ganciclovir for HCMV, and 2-acetylpyridine thiosemicarbazone for cytotoxicity) were used in all assays.

HSV-1 = HSV-1 ELISA in BSC-1 cells; format: cell-based, herpes simplex 1 (HSV-1); conditions: for IC50: ELISA
Procedure: as §2
(b) HSV-1. An enzyme-linked immunosorbent assay (ELISA) was employed to detect HSV-1. 96-well cluster dishes were planted with BSC-1 cells at 10,000 cells per well, in a total volume of 200 μL per well of MEM(E) plus 10% calf serum. After overnight incubation at 37° C., drug and HSV-1 was added at the rate of 100 PFU/well. ELISA plates were blocked with 200 μL per well of 10% calf serum and 0.05% tween in HBS. After incubation for 30 minutes, the blocking agent was rinsed two times with HBS-T. A 1:400 dilution of AP conjugated rabbit anti-HSV-1 antibody in HBS-F was added. Plates were sealed with adhesive sheet, and incubated on rocker for one hour at 37° C. Plates were developed in the dark with 100 μL per well of substrate solution containing p-nitrophenyl phosphate. Plates were read at […]. Drug effects were calculated as a percentage of the reduction in virus in the presence of each drug concentration compared to the titer obtained in the absence of drug. Acyclovir was used as a positive control in all experiments.
as §3

HIV-1 = HIV-1 reverse transcriptase assay in infected CEM cells; format: cell-based, strain IIIB of HIV-1
Procedure: (d) HIV-1. Reverse transcriptase (RT) was employed as a marker for HIV-1. This assay measured the presence of HIV in supernatants of CEM cells infected with strain IIIB of HIV-1 by the amount of RT activity. Cells were grown, infected, and incubated in the presence of seven concentrations (one-half log10 dilutions) beginning at 1 or 100 μM of compounds to be assayed. Procedures and the RT assay were performed as detailed previously. Kucera, L. S., et al., AIDS Res. Human Retroviruses 9:307-314 (1993); White, E. L., et al., Antiviral Res. 16:257-266 (1991).

HFF cells = assay: Cytotoxicity in stationary HFF cells, microscopic inspection; format: cell-based, human
Procedure: as §1
(§4) Cytotoxicity assays. Two different assays were used to explore cytotoxicity of selected compounds as we have detailed previously. (i) Cytotoxicity produced in stationary HFF cells and in growing CEM cells was determined by microscopic inspection of cells used in plaque and RT assays which were not affected by the virus. Turk, S. R., et al., Antimicrob. Agents Chemother. 31:544-550 (1987). (ii) The effect of compounds during two population doublings of KB cells was determined by crystal violet staining and spectrophotometric quantitation of dye eluted from stained cells. Prichard, M. N., et al., Antimicrob. Agents Chemother. 35:1060-1065 (1991).
as §3

KB cells = assay: Cytotoxicity in KB cells, growth over two population doublings; format: cell-based
Procedure: as §1, §4, §3

CEM cells = assay: Cytotoxicity in growing CEM cells, microscopic inspection; format: cell-based
Procedure: as §1, §4, §3

[1] = Example 26, high multiplicity of infection (moi), read-out: HIV-1 IC50, reverse transcriptase assay
[2] = reverse transcriptase assay, CEM cells, low moi (footnote c of the 5th table), read-out: HIV-1, IC50
[3] = KB cell growth, read-out: Cytotoxicity IC50 KB (growth)
[4] = Example 26, listed as R-1 (B = 2-amino-6-methoxy-purine), Example 22
[5] = Example 26, listed as S-1 (B = 2-amino-6-methoxy-purine), Example 22

Row | SMILES | IC50 (HCMV; Example 26) | IC50 (HSV-1; Example 26) | IC50 (HIV-1; [1]) | IC50 (HFF cells) | IC50 (KB cells) | IC50 (CEM cells) | further results
1 | Nc1nc(Cl)c2ncn(C=C3CC3CO)c2n1 (stereo not shown) [R-1 (B = 2-amino-6-chloropurine), Example 22] | 30 µM | > 100 µM | > 100 µM | 32 µM | > 100 µM | > 100 µM | –
2 | Nc1nc(NC2CC2)c2ncn(C=C3CC3CO)c2n1 (stereo not shown) [S-1 (B = 2-aminopurine-6-cyclo-propylaminopurine), Example 2] | 1.8 µM | 20 µM | 65 µM | > 100 µM | > 100 µM | > 100 µM | –
3 | Nc1nc(N)c2ncn(C=C3CC3CO)c2n1 (stereo not shown) [S-1 (B = 2,6-diaminopurine), Example 22] | 21 µM | > 100 µM | > 100 µM | 21 µM | > 100 µM | > 100 µM | –
4 | Nc1nc(NC2CC2)c2ncn(C=C3CC3CO)c2n1 (stereo not shown) [R-1 (B = 2-aminopurine-6-cyclo-propylaminopurine), Example 2] | > 100 µM | > 100 µM | > 100 µM | > 100 µM | > 100 µM | > 100 µM | –
5 | COC(=O)[C@H](C)NP(=O)(OCC1CC1=Cn1cnc2c(N)ncnc21)Oc1ccccc1 (stereo partly drawn) [4 (B = adenine), Example 14, Methyl Phenylphosphoro-L-alaninate of anti-N^9-(2-Hydroxymethylcyclopropylidenemethyl)adenine] | – | – | – | – | – | – | IC50 (HCMV): 21 µM; IC50 (HSV-1; BSC-1 cells): 65 µM; IC50 (HIV-1; [2]): 1.6 µM; IC50 (KB cells; [3]): 50 µM; IC50 (CEM cells; growing CEM cells, visual, read-out: Cytotoxicity IC50 CEM (visual)): 66 µM
6 | COc1nc(N)nc2c1ncn2C=C1CC1CO (stereo not shown) [listing 1 of 2 here] | – | – | – | > 100 µM | > 100 µM | > 100 µM | IC50 (HCMV; [4]): > 100 µM; IC50 (HSV-1; [4]): > 100 µM; IC50 (HIV-1; Example 26, high multiplicity of infection (moi), listed as R-1 (B = 2-amino-6-methoxy-purine), Example 22, read-out: HIV-1 IC50, reverse transcriptase assay): > 100 µM
7 | Nc1nc2c(ncn2C=C2CC2CO)c(=O)[nH]1 (stereo not shown) [S-1 (B = guanine), Example 22] | 2.5 µM | 45 µM | > 100 µM | > 100 µM | > 100 µM | > 100 µM | –
8 | COC(=O)[C@H](C)NP(=O)(OCC1CC1=Cn1cnc2c(N)nc(N)nc21)Oc1ccccc1 (stereo partly drawn) [3 (B = 2,6-diaminopurine), Example 15, Methyl Phenylphosphoro-L-alaninate of syn-2,6-diamino-N^9-(2-Hydroxycyclopropylidene-methyl)purine] | – | – | – | – | – | – | IC50 (HCMV): 4 µM; IC50 (HSV-1; BSC-1 cells): 50 µM; IC50 (HIV-1; [2]): 0.26 µM; IC50 (HFF cells; stationary HFF cells, visual, read-out: Cytotoxicity IC50 HFF (visual)): > 100 µM; IC50 (KB cells; [3]): 40 µM
9 | COc1nc(N)nc2c1ncn2C=C1CC1CO (stereo not drawn) [syn-2-Amino-6-methoxy-N^9-(2-hydroxymethyl-cyclopropylidenemethyl)purine] | 3.1 µM | 33 µM | > 100 µM | – | – | – | activity against HCMV (in words) (HCMV; Example 26): good activity; activity against HSV-1 (in words) (HSV-1; Example 26): significant activity
10 | COc1nc(N)nc2c1ncn2C=C1CC1CO (stereo not shown) [listing 2 of 2 here] | – | – | – | – | – | – | IC50 (HCMV; [5]): 2.5 µM; IC50 (HSV-1; [5]): 20 µM; IC50 (HIV-1; Example 26, high multiplicity of infection (moi), listed as S-1 (B = 2-amino-6-methoxy-purine), Example 22, read-out: HIV-1 IC50, reverse transcriptase assay): 42 µM
11 | Nc1ncnc2c1ncn2/C=C1/C[C@H]1CO [R-1 (B = adenine), Example 23, (R)-(−)-Synadenol] | 2.9 µM | 38 µM | 7 µM | > 100 µM | > 100 µM | > 100 µM | –
12 | [N-]=[N+]=Nc1nc(N)nc2c1ncn2C=C1CC1CO (stereo not drawn) [syn-2-Amino-6-azido-N^9-(2-hydroxymethyl-cyclopropylidene-methyl)purine] | 41 µM | > 100 µM | > 100 µM | > 100 µM | > 100 µM | > 100 µM | activity against HCMV (in words) (HCMV; Example 26): good activity
13 | Nc1nc(Cl)c2ncn(C=C3CC3CO)c2n1 (stereo not shown) [S-1 (B = 2-amino-6-chloropurine), Example 22] | 1.8 µM | 45 µM | > 100 µM | > 100 µM | > 100 µM | > 100 µM | –
14 | Nc1nc2c(ncn2C=C2CC2CO)c(=O)[nH]1 (stereo not shown) [R-1 (B = guanine), Example 22] | > 100 µM | > 100 µM | > 100 µM | > 100 µM | > 100 µM | > 100 µM | –
15 | Nc1ncnc2c1ncn2/C=C1/C[C@@H]1CO [S-1 (B = adenine), Example 24, (S)-(+)-Synadenol] | 2.4 µM | 8.8 µM | 1.2 µM | 100 µM | 80 µM | > 100 µM | –
16 | Nc1nc(N)c2ncn(C=C3CC3CO)c2n1 (stereo not shown) [R-1 (B = 2,6-diaminopurine), Example 22] | > 100 µM | > 100 µM | > 100 µM | > 100 µM | > 100 µM | > 100 µM | –
